Experimental data from the supplement of paper PMC10307832.

What was measured:
Test in all cases: relative viability (nuclei count vs DMSO), 5 days (fraction); higher = more cells survive
Kobe2602 + Vorinostat = compound: C1=CC(=CC=C1NC(=S)NNC2=C(C=C(C=C2[N+](=O)[O-])C(F)(F)F)[N+](=O)[O-])F [Kobe2602] + O=C(CCCCCCC(=O)Nc1ccccc1)NO [Vorinostat] (partner 1 µM)
Summary of the method: (§1)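 Dosing by pin tool came one day after lung cancer cell lines were seeded in 1536-well plates, using either one drug or a fixed anchor-drug dose plus five library-drug doses (not always all listed) in √10 steps. After 5 days, nuclei were counted on 4× images. Relative viability is treated-well nuclei count divided by vehicle-well nuclei count, and values are medians of duplicate plates.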

[1] = compound: COc1cc2nccc(Oc3ccc(NC(=O)C4(C(=O)Nc5ccc(F)cc5)CC4)cc3)c2cc1OC [Cabozantinib] + C[C@]1(O)C[C@@H](c2nc(-c3ccc4ccc(-c5ccccc5)nc4c3)c3c(N)nccn32)C1 [Linsitinib] (partner 1 µM)
Summary of the method: as §1

Kobe2602 + Tozasertib = compound: C1=CC(=CC=C1NC(=S)NNC2=C(C=C(C=C2[N+](=O)[O-])C(F)(F)F)[N+](=O)[O-])F [Kobe2602] + Cc1cc(Nc2cc(N3CCN(C)CC3)nc(Sc3ccc(NC(=O)C4CC4)cc3)n2)n[nH]1 [Tozasertib] (partner 0.1 µM)
Summary of the method: as §1

Zosuquidar + Phenformin = compound: O[C@@H](COc1cccc2ncccc12)CN1CCN([C@@H]2c3ccccc3[C@@H]3[C@H](c4ccccc42)C3(F)F)CC1 [Zosuquidar] + N=C(N)NC(=N)NCCc1ccccc1 [Phenformin] (partner 250 µM)
Summary of the method: as §1

Cell Line | relative viability (Kobe2602 + Vorinostat; first compound 0.2 µM) | relative viability (Kobe2602 + Vorinostat; first compound 0.6325 µM) | relative viability (Kobe2602 + Vorinostat; first compound 2 µM) | relative viability (Kobe2602 + Vorinostat; first compound 6.325 µM) | relative viability (Kobe2602 + Vorinostat; first compound 20 µM) | relative viability ([1]; first compound 0.02 µM) | relative viability ([1]; first compound 0.06325 µM) | relative viability ([1]; first compound 0.2 µM) | relative viability ([1]; first compound 0.6325 µM) | relative viability ([1]; first compound 2 µM) | relative viability (Kobe2602 + Tozasertib; first compound 0.2 µM) | relative viability (Kobe2602 + Tozasertib; first compound 0.6325 µM) | relative viability (Kobe2602 + Tozasertib; first compound 2 µM) | relative viability (Kobe2602 + Tozasertib; first compound 6.325 µM) | relative viability (Kobe2602 + Tozasertib; first compound 20 µM) | relative viability (Zosuquidar + Phenformin; first compound 0.01 µM) | relative viability (Zosuquidar + Phenformin; first compound 0.03162 µM) | relative viability (Zosuquidar + Phenformin; first compound 0.1 µM) | relative viability (Zosuquidar + Phenformin; first compound 0.3162 µM) | relative viability (Zosuquidar + Phenformin; first compound 1 µM)
HCC-15 | 0.908 | 0.912 | 0.814 | 0.815 | 0.812 | 1 | 0.958 | 0.846 | 0.843 | 0.736 | 0.351 | 0.377 | 0.299 | 0.425 | 0.431 | 0.44 | 0.441 | 0.436 | 0.497 | 0.504
HCC-44 | 0.999 | 1.04 | 1.08 | 1.05 | 0.99 | 0.807 | 0.795 | 0.726 | 0.64 | 0.573 | 0.906 | 0.838 | 0.92 | 0.861 | 0.687 | 0.259 | 0.191 | 0.161 | 0.336 | 0.209
HCC-78 | 0.485 | 0.444 | 0.433 | 0.452 | 0.507 | 0.428 | 0.423 | 0.194 | 0.261 | 0.193 | 0.428 | 0.413 | 0.369 | 0.314 | 0.525 | 0.801 | 0.71 |  | 0.707 | 0.558
HCC-366 | 0.311 | 0.357 | 0.329 | 0.273 | 0.296 | 0.772 | 0.649 | 0.703 | 0.637 | 0.554 | 0.0819 | 0.0969 | 0.0807 | 0.0437 | 0.0481 | 0.61 | 0.674 | 0.623 | 0.718 | 0.575
HCC-827 | 0.891 | 0.739 | 0.804 | 0.892 | 0.945 | 0.945 | 1.02 |  | 1.03 | 0.972 | 0.444 | 0.448 | 0.391 | 0.416 | 0.425 | 0.351 | 0.467 | 0.333 | 0.413 | 0.398
HOP-62 | 0.707 | 0.717 | 0.559 | 0.763 | 0.688 | 1.09 | 0.974 | 1.1 | 1.01 | 1.02 | 0.399 | 0.359 | 0.418 | 0.341 | 0.335 | 0.7 | 0.637 | 0.688 | 0.719 | 0.684
IA-LM | 0.894 | 0.95 | 0.819 | 0.953 | 0.988 | 0.704 | 0.689 | 0.683 | 0.559 | 0.696 |  |  |  |  |  |  |  |  |  | 
NCI-H522 | 0.949 | 1.05 | 0.964 | 1 | 0.898 |  |  |  |  |  | 0.68 | 0.644 | 0.552 | 0.592 | 0.568 | 0.654 | 0.606 | 1.07 | 0.682 | 0.62
NCI-H1299 |  |  |  |  |  | 1.03 | 1 | 0.982 | 0.96 | 0.966 |  |  |  |  |  |  |  |  |  | 
NCI-H1563 |  |  |  |  |  | 0.853 | 1.3 | 1.37 | 1.11 | 0.957 |  |  |  |  |  | 0.671 | 0.681 | 0.595 | 0.666 | 0.683
NCI-H1623 |  |  |  |  |  |  |  |  |  |  | 0.42 | 0.433 | 0.396 | 0.439 | 0.412 | 0.622 | 0.662 | 0.537 | 0.613 | 0.576
NCI-H1648 | 0.464 | 0.441 | 0.351 | 0.334 | 0.338 |  |  |  |  |  | 0.465 | 0.43 | 0.468 | 0.513 | 0.393 |  |  |  |  | 
NCI-H1650 | 0.598 | 0.617 | 0.642 | 0.539 | 0.527 |  |  |  |  |  | 0.409 | 0.337 | 0.319 | 0.24 | 0.271 | 0.391 | 0.321 | 0.383 | 0.443 | 0.353
NCI-H1703 |  |  |  |  |  | 0.601 | 0.35 | 0.287 | 0.165 | 0.146 |  |  |  |  |  |  |  |  |  | 
NCI-H1792 |  |  |  |  |  | 0.669 | 0.588 | 0.511 | 0.483 | 0.496 |  |  |  |  |  | 0.35 | 0.287 | 0.279 | 0.31 | 0.295
NCI-H2170 | 0.765 | 0.813 | 0.732 | 0.717 | 0.84 |  |  |  |  |  | 0.65 | 0.729 | 0.721 | 0.78 | 0.694 | 0.388 | 0.463 | 0.393 | 0.395 | 0.445
NCI-H2342 | 0.713 | 0.789 | 0.761 | 0.716 | 1.17 |  |  |  |  |  | 0.575 | 0.546 | 0.408 | 0.491 | 0.542 | 0.581 | 0.558 | 0.49 | 0.581 | 0.623
SW 900 | 0.677 | 0.645 | 0.492 | 0.476 | 0.602 |  |  |  |  |  | 0.561 | 0.621 | 0.458 | 0.379 | 0.512 | 0.597 | 0.578 | 0.618 | 0.738 | 0.557
